Experimental data taken from PMC7180572, “5-Alkylamino-N-phenylpyrazine-2-carboxamides: Design, Preparation, and Antimycobacterial Evaluation” (Molecules, 2020).
≈ marks a conversion by molar mass, not a printed value. Read-outs that look alike come from different tables or passages of the source.

How the values were obtained:
[1] = test system: Klebsiella pneumoniae ATCC 10031, CCM 4415; assay: Antibacterial microdilution broth method (EUCAST)
[2] = test system: Staphylococcus aureus spp.aureus ATCC 29213, CCM 4223; assay: Antibacterial microdilution broth method (EUCAST); format: cell-based; details: read-out: MIC SA
[3] = test system: Enterococcus faecalis ATCC 29212, CCM 4224; assay: Antibacterial microdilution broth method (EUCAST); format: cell-based; details: read-out: MIC EF
[4] = test system: Mycobacterium aurum DSM 43999 (ATCC 23366); assay: Microdilution broth, modified Microplate Alamar Blue Assay, whole cell growth inhibition; format: cell-based; details: Mycolicibacterium aurum, read-out: MIC Mycobacterium aurum
HepG2 cells = assay: HepG2 cytotoxicity, CellTiter 96 (MTS) assay; format: cell-based, human; details: for IC50: Homo sapiens, HepG2, 24 h, read-out: HepG2 IC50; for SI, selectivity index: IC50 (HepG2)/MIC against Mtb H37Ra (in µM)
[5] = test system: Candida tropicalis ATCC 750, CCM 8264; assay: Antifungal microdilution broth method (EUCAST); format: cell-based; details: read-out: MIC CT
[6] = test system: Escherichia coli ATCC 25922, CCM 3954; assay: Antibacterial microdilution broth method (EUCAST); format: cell-based; details: read-out: MIC EC
[7] = test system: Acinetobacter baumanii ATCC 19606, DSM 30007; assay: Antibacterial microdilution broth method (EUCAST); format: cell-based; details: Acinetobacter baumannii
[8] = test system: Candida krusei ATCC 6258, CCM 8271; assay: Antifungal microdilution broth method (EUCAST); format: cell-based; details: Pichia kudriavzevii
[9] = test system: Candida albicans ATCC 24433, CCM 8320; assay: Antifungal microdilution broth method (EUCAST); format: cell-based
[10] = test system: Absidia corymbifera CCM 8077 (Lichtheimia corymbifera); assay: Antifungal microdilution broth method (EUCAST); format: cell-based; details: read-out: MIC AC
[11] = test system: Aspergillus flavus CCM 8363; assay: Antifungal microdilution broth method (EUCAST); format: cell-based; details: read-out: MIC AFla
[12] = test system: Candida parapsilosis ATCC 22019, CCM 8260; assay: Antifungal microdilution broth method (EUCAST); format: cell-based; details: Lodderomyces parapsilosis
[13] = test system: Staphylococcus aureus methicillin resistant ATCC 43300, CCM 4750; assay: microbe, parasite or virus in culture; format: cell-based; details: ATCC 43300 / CCM 4750 / MRSA, read-out: MIC MRSA
[14] = test system: Aspergillus fumigatus ATCC 204305; assay: Antifungal microdilution broth method (EUCAST); format: cell-based; details: read-out: MIC AF
[15] = test system: Staphylococcus epidermidis ATCC 12228, CCM 4418; assay: Antibacterial microdilution broth method (EUCAST); format: cell-based; details: read-out: MIC SE
[16] = test system: Trichophyton interdigitale ATCC 9533, CCM 8377; assay: Antifungal microdilution broth method (EUCAST); format: cell-based; details: read-out: MIC TI
[17] = test system: Pseudomonas aeruginosa ATCC 27853, CCM 3955; assay: Antibacterial microdilution broth method (EUCAST); format: cell-based; details: read-out: MIC PA
[18] = test system: Mycobacterium tuberculosis H37Ra ITM-M006710 (ATCC 9431); assay: Microdilution broth, modified Microplate Alamar Blue Assay, whole cell growth inhibition; format: cell-based; details: Mycobacterium tuberculosis; in vitro, Middlebrook 7H9 broth, resazurin; read-out: MIC Mtb H37Ra
[19] = test system: Mycobacterium smegmatis DSM 43465 (ATCC 607); assay: as above; format: cell-based; details: Mycolicibacterium smegmatis, read-out: MIC Mycobacterium smegmatis

CCCCCCCCNc1cnc(C(=O)Nc2cccc(O)c2)cn1 [Compound 2f, N-(3-hydroxyphenyl)-5-(octylamino)pyrazine-2-carboxamide]
MIC KP ([1]; 24h): > 125 µM
MIC KP ([1]; 48h): > 125 µM
MIC ([2]; 24 h): > 125 µM
MIC ([2]; 48 h): > 125 µM
melting point: 223 to 225.9 °C
MIC ([3]; 24 h): > 125 µM
MIC ([3]; 48 h): > 125 µM
MIC [4]: ≥ 500 µg/mL
IC50 (HepG2 cells): > 50 µM
MIC ([5]; 24 h): > 125 µM
MIC ([5]; 48 h): > 125 µM
MIC ([6]; 24 h): > 125 µM
MIC ([6]; 48 h): > 125 µM
MIC ([7]; 24h): > 125 µM
MIC ([7]; 48h): > 125 µM
MIC ([8]; 24 h, read-out: MIC CK): > 125 µM
MIC ([8]; 48 h, read-out: MIC CK): > 125 µM
MIC ([9]; 24 h, read-out: MIC CA): > 125 µM
MIC ([9]; 48 h, read-out: MIC CA): > 125 µM
MIC ([10]; CCM8077, 24 h): > 125 µM
MIC ([10]; CCM8077, 48 h): > 125 µM
MIC ([11]; CCM8363, 24 h): > 125 µM
MIC ([11]; CCM8363, 48 h): > 125 µM
MIC ([12]; 24 h, read-out: MIC CP): > 125 µM
MIC ([12]; 48 h, read-out: MIC CP): > 125 µM
MIC ([13]; 24 h): > 125 µM
MIC ([13]; 48 h): > 125 µM
MIC ([14]; ATCC204305, 24 h): > 125 µM
MIC ([14]; ATCC204305, 48 h): > 125 µM
MIC ([15]; 24 h): > 125 µM
MIC ([15]; 48 h): > 125 µM
MIC ([16]; 72 h): > 125 µM
MIC ([16]; 120 h): > 125 µM
MIC ([17]; 72 h): > 125 µM
MIC ([17]; 120 h): > 125 µM
MIC [18]: ≥ 500 µg/mL
MIC [19]: 250 µg/mL (≈ 730 µM)

CCCNc1cnc(C(=O)Nc2ccc(O)cc2)cn1 [Compound 3a, N-(4-hydroxyphenyl)-5-(propylamino)pyrazine-2-carboxamide]
MIC KP ([1]; 24h): > 500 µM
MIC KP ([1]; 48h): > 500 µM
MIC ([2]; 24 h): > 500 µM
MIC ([2]; 48 h): > 500 µM
melting point: 209.3 to 215.6 °C
MIC ([3]; 24 h): > 500 µM
MIC ([3]; 48 h): > 500 µM
MIC [4]: ≥ 500 µg/mL
IC50 (HepG2 cells): 410 µM
SI, selectivity index (HepG2 cells): 7.18
MIC ([5]; 24 h): > 500 µM
MIC ([5]; 48 h): > 500 µM
MIC ([6]; 24 h): > 500 µM
MIC ([6]; 48 h): > 500 µM
MIC ([7]; 24h): > 500 µM
MIC ([7]; 48h): > 500 µM
MIC ([8]; 24 h, read-out: MIC CK): > 500 µM
MIC ([8]; 48 h, read-out: MIC CK): > 500 µM
MIC ([9]; 24 h, read-out: MIC CA): > 500 µM
MIC ([9]; 48 h, read-out: MIC CA): > 500 µM
MIC ([10]; CCM8077, 24 h): > 500 µM
MIC ([10]; CCM8077, 48 h): > 500 µM
MIC ([11]; CCM8363, 24 h): > 500 µM
MIC ([11]; CCM8363, 48 h): > 500 µM
MIC ([12]; 24 h, read-out: MIC CP): > 500 µM
MIC ([12]; 48 h, read-out: MIC CP): > 500 µM
MIC ([13]; 24 h): > 500 µM
MIC ([13]; 48 h): > 500 µM
MIC ([14]; ATCC204305, 24 h): > 500 µM
MIC ([14]; ATCC204305, 48 h): > 500 µM
MIC ([15]; 24 h): > 500 µM
MIC ([15]; 48 h): > 500 µM
MIC ([16]; 72 h): > 500 µM
MIC ([16]; 120 h): > 500 µM
MIC ([17]; 72 h): > 500 µM
MIC ([17]; 120 h): > 500 µM
MIC [18]: 15.6 µg/mL (≈ 57.4 µM)
MIC [19]: ≥ 500 µg/mL

CCCCNc1cnc(C(=O)Nc2ccc(O)cc2)cn1 [Compound 3b, 5-(Butylamino)pyrazine-N-(4-hydroxyphenyl)-2-carboxamide]
MIC KP ([1]; 24h): > 500 µM
MIC KP ([1]; 48h): > 500 µM
MIC ([2]; 24 h): > 500 µM
MIC ([2]; 48 h): > 500 µM
melting point: 208 to 211.4 °C
MIC ([3]; 24 h): > 500 µM
MIC ([3]; 48 h): > 500 µM
MIC [4]: ≥ 500 µg/mL
IC50 (HepG2 cells): 378 µM
SI, selectivity index (HepG2 cells): 3.46
MIC ([5]; 24 h): > 250 µM
MIC ([5]; 48 h): > 250 µM
MIC ([6]; 24 h): > 500 µM
MIC ([6]; 48 h): > 500 µM
MIC ([7]; 24h): > 500 µM
MIC ([7]; 48h): > 500 µM
MIC ([8]; 24 h, read-out: MIC CK): > 250 µM
MIC ([8]; 48 h, read-out: MIC CK): > 250 µM
MIC ([8]; read-out: MIC CK (Candida krusei)): > 250 µM
MIC ([9]; 24 h, read-out: MIC CA): 62.5 µM (≈ 17.9 µg/mL)
MIC ([9]; 48 h, read-out: MIC CA): 62.5 µM (≈ 17.9 µg/mL)
MIC ([9]; read-out: MIC CA (Candida albicans)): 62.5 µM (≈ 17.9 µg/mL)
MIC ([10]; CCM8077, 24 h): > 250 µM
MIC ([10]; CCM8077, 48 h): > 250 µM
MIC ([11]; CCM8363, 24 h): > 250 µM
MIC ([11]; CCM8363, 48 h): > 250 µM
MIC ([12]; 24 h, read-out: MIC CP): 250 µM (≈ 71.6 µg/mL)
MIC ([12]; 48 h, read-out: MIC CP): 250 µM (≈ 71.6 µg/mL)
MIC ([12]; read-out: MIC CP (Candida parapsilosis)): 250 µM (≈ 71.6 µg/mL)
MIC ([13]; 24 h): > 500 µM
MIC ([13]; 48 h): > 500 µM
MIC ([14]; ATCC204305, 24 h): > 250 µM
MIC ([14]; ATCC204305, 48 h): > 250 µM
MIC ([15]; 24 h): > 500 µM
MIC ([15]; 48 h): > 500 µM
MIC ([16]; 72 h): > 250 µM
MIC ([16]; 120 h): > 250 µM
MIC ([17]; 72 h): > 500 µM
MIC ([17]; 120 h): > 500 µM
MIC [18]: 31.2 µg/mL (≈ 109 µM)
MIC [19]: ≥ 500 µg/mL
